Test results from paper PMC6273431, “The Structure–Antimicrobial Activity Relationships of a Promising Class of the Compounds Containing the N-Arylpiperazine Scaffold” (Molecules, 2016).
Like-named read-outs stand apart in the source and are kept apart here.

Key:
M. marinum CAMP 5644 = assay: antimycobacterial MIC, broth dilution micromethod; assay type: cell-based; settings: Mycobacterium marinum, CAMP5644, 504 h, 21 days at 28 °C
[1] = tested on: Mycobacterium avium subsp. paratuberculosis CIT03; assay: antimycobacterial MIC, MB broth, alamarBlue; assay type: cell-based; settings: 264 h, read-out: MIC MAP
Protocol: The Mycobacterium avium subsp. paratuberculosis CIT03 strain was grown in the Middlebrook (MB) broth, supplemented with the Oleic-Albumin-Dextrose-Catalase Supplement (OADC, Becton Dickinson, Oxford, UK) and the mycobactin J (2 μg/mL). The commercially available siderophore mycobactin J reduced the incubation period of M. avium subsp. paratuberculosis in a complex medium when compared to the medium containing the mycobactin P as a growth factor.
The identification of the isolate was performed using biochemical and molecular protocols. At a log phase growth, a culture sample (10 mL) was centrifuged at 15,000 rpm/20 min using a bench top centrifuge (Model CR 4-12, Jouan Inc., London, UK). Following removal of the supernatant, the pellet was washed in fresh Middlebrook 7H9GC broth and re-suspended in fresh supplemented MB broth (10 mL). The turbidity was adjusted to match the McFarland standard No. 1 containing approximately 3.0 × 10^8 Colony Forming Units (CFU) with the MB broth. Further 1:20 dilution of the culture was performed in the MB broth. The susceptibility of given mycobacterial species was investigated in a 96-well plate format. In those experiments, sterile deionised water (300 μL) was added to all outer-perimeter wells of the plates to minimize an evaporation of the medium in the test wells during the incubation process. Each evaluated compound (100 μL) was incubated with the mycobacterial species (100 μL). The dilutions of a particular compound were prepared in triplicate. For all inspected derivatives, final concentrations ranged from 1000 μg/mL to 60 μg/mL. All compounds were prepared in dimethyl sulfoxide (DMSO; Sigma-Aldrich, Irvine, UK) and subsequent dilutions were made in the supplemented MB broth. The plates were sealed with a parafilm and incubated at 37 °C for 11 days. Following the incubation, a 10% addition of a water‑soluble dye, the alamarBlue reagent (AbD Serotec, Kidlington, UK), was mixed into each well. Absorbance readings at 570 nm and 600 nm were taken, initially for background subtraction and after 24 h re-incubation. The subtraction is necessary for strongly coloured compounds, where the colour may interfere with the interpretation of any colour change. For non-interfering compounds, a blue colour in a well was interpreted as an absence of a growth and a pink colour was scored as a growth.
The minimum inhibitory concentration (MIC) was defined as the lowest concentration of the compound at which no visible bacterial growth was observed. In other words, the MIC was the lowest concentration that prevented a visual colour change from blue to pink. The MIC value has been routinely and widely used in bacterial assays and it has been a standard detection limit according to the Clinical and Laboratory Standards Institute. The clinically used antimycobacterial drugs INH and RIF were applied as the standards.

M. kansasii DSM 44162 = assay: antimycobacterial MIC, broth dilution micromethod; assay type: cell-based; settings: Mycobacterium kansasii, DSM44162, 168 h, 7 days at 37 °C
M. smegmatis ATCC 700084 = assay: antimycobacterial MIC, broth dilution micromethod; assay type: cell-based; settings: Mycolicibacterium smegmatis, ATCC700084, 72 h, 3 days at 37 °C
[2] = tested on: methicillin-resistant Staphylococcus aureus 63718; assay: antibacterial MIC, microtitration broth method; assay type: cell-based; settings: MRSA, 37 °C
Protocol: (§1) Prior to the testing, each strain was transferred into a nutrient agar (Oxoid Limited, Basingstoke, UK), which was enriched with 5% defibrinated bovine blood.
(§2) The MICs were determined by the microtitration broth method in the cation-adjusted Mueller-Hinton broth (Becton Dickinson, Oxford, UK) according to an international interdisciplinary Clinical Laboratory Standard Institute guidelines.
(§3) The checkerboard was inoculated by the bacterial inocula, which were prepared in a phosphate buffered saline solution with the pH = 7.2–7.3 to simulate physiological pH. The final concentration of each inoculum in the final volume of 100 μL in the wells was approximately 7.5 × 10^6 CFU/mL. Drug-free controls, sterility controls and the controls consisted of the broth with DMSO were included. The determination of the results was performed visually after 24 h of static incubation in the darkness at 37 °C in an aerobic atmosphere.
(§4) To ensure reproducibility, each antibacterial MIC assay was performed triplicate on separate occasions.

[3] = tested on: Enterococcus faecalis ATCC 29212; assay: antibacterial MIC, microtitration broth method; assay type: cell-based; settings: 37 °C
Protocol: as §1, §2, §3, §4

[4] = tested on: Staphylococcus aureus ATCC 29213; assay: antibacterial MIC, microtitration broth method; assay type: cell-based; settings: 37 °C
Protocol: as §1, §2, §3, §4

[5] = tested on: Escherichia coli ATCC 25922; assay: antibacterial MIC, microtitration broth method; assay type: cell-based; settings: 37 °C
Protocol: as §1, §2, §3, §4

[6] = tested on: Candida parapsilosis CCM 8260; assay: candidacidal MIC, microdilution method; assay type: cell-based; settings: 48 h, 37 °C
Protocol: (§5) In order to provide a look into the potential usefulness of the derivatives 5a–l as the candidates for a development of anti-yeast (candidacidal) agents, they were in vitro tested against Candida albicans CCM 8261 (CA 8261), C. krusei CCM 8271 (CK 8271) and C. parapsilosis CCM 8260 (CP 8260). The yeasts were obtained from the Czech Collection of Microorganisms (Masaryk University, Faculty of Science, Brno, Czech Republic). They were grown and kept on Sabouraud agar (Oxoid Limited, Basingstoke, UK).
(§6) For the screening, the microdilution method according to the Antimicrobial Susceptibility Testing Protocols was applied. The inoculum was prepared from the cultures grown on Sabouraud agar. With the sterile solution of NaCl, the inoculum was prepared to the 0.5 McFarland units using the Densi-La-Meter densitometer (LIAP, Riga, Latvia) and diluted a thousand‑fold with the Roswell Park Memorial Institute (RPMI) 1640 medium (Sigma-Aldrich, Darmstadt, Germany). Prepared suspension was used for an inoculation of microtitre plates. Final concentration in wells ranged from 5.0 × 10^2 CFU/mL to 2.5 × 10^3 CFU/mL. […] For the determination of the MICs, the stock solutions of all the tested compounds were diluted in the microtitre checkerboard to the final concentration varying from 128 μg/mL to 0.125 μg/mL. Drug-free control, sterility control and the control consisted of a medium and DMSO alone were included. Inoculated microtitre plates were incubated for 48 h in the darkness at 37 °C in an aerobic atmosphere. The results were estimated against static light.
(§7) The MIC was defined as the lowest concentration of the tested compound at which no visible growth was observed. To ensure reproducibility of the results, each candidacidal MIC assay was performed triplicate on separate occasions. It was important to note that all the MICs from the in vitro antimicrobial screening were expressed in μg/mL units and were available in Tables S3 and S4 (Supplementary Materials).

[7] = tested on: Candida albicans CCM 8261; assay: candidacidal MIC, microdilution method; assay type: cell-based; settings: 48 h, 37 °C
Protocol: as §5, §6, §7

Candida krusei CCM 8271 = assay: candidacidal MIC, microdilution method; assay type: cell-based; settings: 48 h, 37 °C
Protocol: as §5, §6, §7

[8] = set-up: method as in PMID 16209439, PMID 16209439, doi:10.2478/s11696-006-0007-y; settings: octan-1-ol/phosphate buffer (pH = 7.4); cited from earlier work
[9] = set-up: method as in PMID 16209439, PMID 16209439; settings: potentiometric titration; cited from earlier work
[10] = Lodderomyces parapsilosis, CCM8260
[11] = Lodderomyces parapsilosis, CCM8260, Table S4
[12] = Candida albicans, CCM8261, Table S4
[13] = Pichia kudriavzevii, CCM8271, Table S4

Compound | MIC (M. marinum CAMP 5644) [µM] | MIC (M. marinum CAMP 5644; Table S3) [µg/mL] | MIC ([1]; 37 °C, 11 days) [µM] | MIC [1] [µg/mL] | MIC (M. kansasii DSM 44162) [µM] | MIC (M. kansasii DSM 44162; Table S3) [µg/mL] | MIC (M. smegmatis ATCC 700084) [µM] | MIC (M. smegmatis ATCC 700084; Table S3) [µg/mL] | MIC ([2]; 24 h) [µM] | MIC ([2]; Table S4, 24 h) [µg/mL] | MIC ([3]; ATCC29212, 24 h) [µM] | MIC ([3]; ATCC29212, Table S4, 24 h) [µg/mL] | MIC ([4]; ATCC29213, 24 h) [µM] | MIC ([4]; ATCC29213, Table S4, 24 h) [µg/mL] | MIC ([5]; ATCC25922, 24 h) [µM] | MIC ([5]; ATCC25922, Table S4, 24 h) [µg/mL] | MIC [6, 10] [µM] | MIC [6, 11] [µg/mL] | MIC ([7]; Candida albicans, CCM8261) [µM] | MIC (Candida krusei CCM 8271; Pichia kudriavzevii, CCM8271) [µM] | further results
CO[C@H]1/C=C/O[C@@]2(C)Oc3c(C)c(O)c4c(O)c(c(/C=N/N5CCN(C)CC5)c(O)c4c3C2=O)NC(=O)/C(C)=C\C=C\[C@H](C)[C@H](O)[C@@H](C)[C@@H](O)[C@@H](C)[C@H](OC(C)=O)[C@@H]1C [RIF, rifampicin, reference compound] | 2.43 | 0.25 | 109 | 60 | 0.15 | 0.5 | 19.4 | 0.125 |  |  |  |  |  |  |  |  |  |  |  |  | 
CCOc1ccc(NC(=O)OCC(O)CN2CCN(c3ccc(F)cc3)CC2)cc1 (stereo not shown) [Compound 5l] | 282 | 128 | 2200 | 1000 | 564 | 256 | 564 | 256 | > 564 | > 256 | > 564 | > 256 | > 564 | > 256 | > 564 | > 256 | > 282 | > 128 | > 282 | > 282 | MIC [7, 12]: > 128 µg/mL; MIC (Candida krusei CCM 8271; [13]): > 128 µg/mL; log Pexp [8]: 3.28; pKa [9]: 7.18
Nc1nc(=O)[nH]cc1F [Compound 5-FC, 5-flucytosine, reference compound] |  |  |  |  |  |  |  |  |  |  |  |  |  |  |  |  |  |  |  |  | MIC [6]: 61.50 µM; MIC CP ([6]; Table S4): 8 µg/mL; MIC [7]: 7.69 µM; MIC CA ([7]; Table S4): 1 µg/mL; MIC (Candida krusei CCM 8271): 0.96 µM; MIC CK (Candida krusei CCM 8271; Table S4): 0.125 µg/mL
NNC(=O)c1ccncc1 [INH, isoniazid, reference compound] | 467 | 64 | 1820 | 250 |  |  | 117 | 16.1 |  |  |  |  |  |  |  |  |  |  |  |  | 
COc1ccccc1NC(=O)OCC(O)CN1CCN(c2ccc(F)cc2)CC1 (stereo not shown) [Compound 5g] | 145 | 64 | 2270 | 1000 | 145 | 64 | 582 | 256 | > 582 | > 256 | > 582 | > 256 | > 582 | > 256 | > 582 | > 256 | > 291 | > 128 | > 291 | > 291 | MIC [7, 12]: > 128 µg/mL; MIC (Candida krusei CCM 8271; [13]): > 128 µg/mL; log Pexp [8]: 3.61; pKa [9]: 6.73
CCOc1cccc(NC(=O)OCC(O)CN2CCN(c3cccc(C(F)(F)F)c3)CC2)c1.Cl (stereo not shown) [Compound 5d, 1-[3-(3-ethoxyphenylcarbamoyl)oxy-2-hydroxypropyl]-4-(3-trifluoromethylphenyl)piperazin-1-ium chloride] | 127 | 64 | 1980 | 1000 | 31.8 | 16 | 127 | 64 | > 508 | > 256 | > 508 | > 256 | > 508 | > 256 | > 508 | > 256 | > 254 | > 128 | > 254 | > 254 | MIC [7, 12]: > 128 µg/mL; MIC (Candida krusei CCM 8271; [13]): > 128 µg/mL; log Pexp [8]: 3.72; pKa [9]: 5.35
C[C@@H]1[C@H](O)[C@@H](C)/C=C/C=C/C=C/C=C/C=C/C=C/C=C/[C@H](O[C@@H]2O[C@H](C)[C@@H](O)[C@H](N)[C@@H]2O)C[C@@H]2O[C@](O)(C[C@@H](O)C[C@@H](O)[C@H](O)CC[C@@H](O)C[C@@H](O)CC(=O)O[C@H]1C)C[C@H](O)[C@H]2C(=O)O [Amph. B, amphotericin B, reference compound] |  |  |  |  |  |  |  |  |  |  |  |  |  |  |  |  | 1.08 |  | 0.54 | 0.54 | 
CC1(C)S[C@@H]2[C@H](NC(=O)[C@H](N)c3ccccc3)C(=O)N2[C@H]1C(=O)O [AMP, ampicillin, reference compound] |  |  |  |  |  |  |  |  | > 45.8 | > 16 | > 45.8 | > 16 | 5.72 | 2 | > 45.8 | > 16 |  |  |  |  | 
